Reference: US20220233512A1, “INHIBITING AN IMMUNE RESPONSE MEDIATED BY ONE OR MORE OF TLR2, RAGE, CCR5, CXCR4 AND CD4” (priority 2020, published 2022)

Target: T1, mu opiate receptor (MOR) (Rattus norvegicus, UniProt P33535)
T1 construct: from tissue; host or cells: striatum (membrane preparation)
Assay: MOR agonist activity using [35S]GTPgS binding assay in striatal membranes
Type: biochemical
Conditions: Series C-2 table
Summary of the method: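 Rat striatal membranes incubated 5 min at 30 °C in pH 7.5 HEPES buffer with 100 mM NaCl, 1 mM MgCl2 and 0.5 nM [35S]GTPgS, then 5 min with compound. Gαo-bound [35S]GTPgS isolated by immunoprecipitation and counted by liquid scintillation.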

T1 sequence (P33535 whole entry): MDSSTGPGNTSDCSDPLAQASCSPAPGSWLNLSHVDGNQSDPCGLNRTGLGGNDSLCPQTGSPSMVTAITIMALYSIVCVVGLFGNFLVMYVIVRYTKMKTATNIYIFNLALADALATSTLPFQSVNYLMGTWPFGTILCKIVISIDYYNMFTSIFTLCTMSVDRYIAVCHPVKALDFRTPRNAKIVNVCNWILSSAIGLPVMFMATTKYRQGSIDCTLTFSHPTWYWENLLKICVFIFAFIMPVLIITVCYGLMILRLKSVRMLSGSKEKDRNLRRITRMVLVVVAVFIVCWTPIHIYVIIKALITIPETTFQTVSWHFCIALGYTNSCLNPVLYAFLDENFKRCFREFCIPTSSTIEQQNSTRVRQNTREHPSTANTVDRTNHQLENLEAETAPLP

CCN1CCC2(CC1)OCCN2S(=O)(=O)c1ccc(C(C)=O)cc1 [Compound C0094M]
MOR agonist activity ([35S]GTPgS binding to Gao) (0.1 μM compound as agonist): 172.5% | MOR agonist activity ([35S]GTPgS binding to Gao) (1 μM + BFNA): 115.3% | MOR agonist activity ([35S]GTPgS binding to Gao) (1 μM compound as agonist): 263.5%

CC(=O)c1ccc(S(=O)(=O)N2CCOC23CCN(CC2CC2)CC3)cc1 [Compound C0095M]
MOR agonist activity ([35S]GTPgS binding to Gao) (0.1 μM compound as agonist): 189.1% | MOR agonist activity ([35S]GTPgS binding to Gao) (1 μM + BFNA): 107.7% | MOR agonist activity ([35S]GTPgS binding to Gao) (1 μM compound as agonist): 224.6%

C=CCN1CCC2(CC1)OCCN2S(=O)(=O)c1ccc(C(C)=O)cc1 [Compound C0096M]
MOR agonist activity ([35S]GTPgS binding to Gao) (0.1 μM compound as agonist): 186.4% | MOR agonist activity ([35S]GTPgS binding to Gao) (1 μM + BFNA): 127.1% | MOR agonist activity ([35S]GTPgS binding to Gao) (1 μM compound as agonist): 328.9%

CCOC(=O)CN1CCC2(CC1)OCCN2S(=O)(=O)c1ccc(C(C)=O)cc1 [Compound C0099M]
MOR agonist activity ([35S]GTPgS binding to Gao) (0.1 μM compound as agonist): 157.2% | MOR agonist activity ([35S]GTPgS binding to Gao) (1 μM + BFNA): 114.7% | MOR agonist activity ([35S]GTPgS binding to Gao) (1 μM compound as agonist): 195.7%

CC(=O)c1ccc(S(=O)(=O)N2CCOC23CCN(CC(=O)O)CC3)cc1 [Compound C0100M]
MOR agonist activity ([35S]GTPgS binding to Gao) (0.1 μM compound as agonist): 173.6% | MOR agonist activity ([35S]GTPgS binding to Gao) (1 μM + BFNA): 195.6% | MOR agonist activity ([35S]GTPgS binding to Gao) (1 μM compound as agonist): 245.9%

CCCCN1CCC2(CC1)OCCN2S(=O)(=O)c1ccc(C(C)=O)cc1 [Compound C0101M]
MOR agonist activity ([35S]GTPgS binding to Gao) (0.1 μM compound as agonist): 138.2% | MOR agonist activity ([35S]GTPgS binding to Gao) (1 μM + BFNA): 174.8% | MOR agonist activity ([35S]GTPgS binding to Gao) (1 μM compound as agonist): 274.3%

CCCCN1CCC2(CC1)OCCN2S(=O)(=O)c1ccc(OC)cc1 [Compound C0102M]
MOR agonist activity ([35S]GTPgS binding to Gao) (0.1 μM compound as agonist): 131.8% | MOR agonist activity ([35S]GTPgS binding to Gao) (1 μM + BFNA): 150.4% | MOR agonist activity ([35S]GTPgS binding to Gao) (1 μM compound as agonist): 272.0%

CN1CCC2(CC1)NC(=O)CN2Cc1ccccc1 [Compound C0104M]
MOR agonist activity ([35S]GTPgS binding to Gao) (0.1 μM compound as agonist): 188.2% | MOR agonist activity ([35S]GTPgS binding to Gao) (1 μM + BFNA): 143.8% | MOR agonist activity ([35S]GTPgS binding to Gao) (1 μM compound as agonist): 238.9%

CN1CCC2(CC1)OCCN2S(=O)(=O)c1ccc(S(C)(=O)=O)cc1 [Compound C0106M]
MOR agonist activity ([35S]GTPgS binding to Gao) (0.1 μM compound as agonist): 171.8% | MOR agonist activity ([35S]GTPgS binding to Gao) (1 μM + BFNA): 117.2% | MOR agonist activity ([35S]GTPgS binding to Gao) (1 μM compound as agonist): 240.7%

CC(=O)c1ccc(S(=O)(=O)N2CC(CN(C)C)OC23CCN(C)CC3)cc1 (stereo not drawn) [Compound C0108M]
MOR agonist activity ([35S]GTPgS binding to Gao) (0.1 μM compound as agonist): 205.6% | MOR agonist activity ([35S]GTPgS binding to Gao) (1 μM + BFNA): 76.9% | MOR agonist activity ([35S]GTPgS binding to Gao) (1 μM compound as agonist): 258.5%

O=C1CNC2(CCNCC2)N1Cc1ccccc1 [Compound C0114M]
MOR agonist activity ([35S]GTPgS binding to Gao) (0.1 μM compound as agonist): 114.0% | MOR agonist activity ([35S]GTPgS binding to Gao) (1 μM + BFNA): 35.9% | MOR agonist activity ([35S]GTPgS binding to Gao) (1 μM compound as agonist): 144.3%

O=C1CN(Cc2ccccc2)C2(CCNCC2)N1 [Compound C0115M]
MOR agonist activity ([35S]GTPgS binding to Gao) (0.1 μM compound as agonist): 177.2% | MOR agonist activity ([35S]GTPgS binding to Gao) (1 μM + BFNA): 118.4% | MOR agonist activity ([35S]GTPgS binding to Gao) (1 μM compound as agonist): 226.8%

CS(=O)(=O)c1ccc(S(=O)(=O)N2CCOC23CCNCC3)cc1 [Compound C0116M]
MOR agonist activity ([35S]GTPgS binding to Gao) (0.1 μM compound as agonist): 258.4% | MOR agonist activity ([35S]GTPgS binding to Gao) (1 μM + BFNA): 152.0% | MOR agonist activity ([35S]GTPgS binding to Gao) (1 μM compound as agonist): 302.8%

CC(=O)c1ccc(S(=O)(=O)N2CC(CN(C)C)OC23CCNCC3)cc1 (stereo not drawn) [Compound C0118M]
MOR agonist activity ([35S]GTPgS binding to Gao) (0.1 μM compound as agonist): 166.2% | MOR agonist activity ([35S]GTPgS binding to Gao) (1 μM + BFNA): 79.2% | MOR agonist activity ([35S]GTPgS binding to Gao) (1 μM compound as agonist): 261.5%

CC(=O)c1ccc(S(=O)(=O)N2C(Cc3c[nH]cn3)C(=O)NC23CCNCC3)cc1 (stereo not drawn) [Compound C0119M]
MOR agonist activity ([35S]GTPgS binding to Gao) (0.1 μM compound as agonist): 105.7% | MOR agonist activity ([35S]GTPgS binding to Gao) (1 μM + BFNA): 35.1% | MOR agonist activity ([35S]GTPgS binding to Gao) (1 μM compound as agonist): 167.8%

O=C1CNC2(CCN(CC3CC3)CC2)N1Cc1ccccc1 [Compound C0124M]
MOR agonist activity ([35S]GTPgS binding to Gao) (0.1 μM compound as agonist): 252.0% | MOR agonist activity ([35S]GTPgS binding to Gao) (1 μM + BFNA): 61.4% | MOR agonist activity ([35S]GTPgS binding to Gao) (1 μM compound as agonist): 305.1%

O=C1CN(Cc2ccccc2)C2(CCN(CC3CC3)CC2)N1 [Compound C0125M]
MOR agonist activity ([35S]GTPgS binding to Gao) (0.1 μM compound as agonist): 168.6% | MOR agonist activity ([35S]GTPgS binding to Gao) (1 μM + BFNA): 159.7% | MOR agonist activity ([35S]GTPgS binding to Gao) (1 μM compound as agonist): 195.2%

CS(=O)(=O)c1ccc(S(=O)(=O)N2CCOC23CCN(CC2CC2)CC3)cc1 [Compound C0126M]
MOR agonist activity ([35S]GTPgS binding to Gao) (0.1 μM compound as agonist): 181.8% | MOR agonist activity ([35S]GTPgS binding to Gao) (1 μM + BFNA): 108.5% | MOR agonist activity ([35S]GTPgS binding to Gao) (1 μM compound as agonist): 265.3%

CC(=O)c1ccc(S(=O)(=O)N2CC(CN(C)C)OC23CCN(CC2CC2)CC3)cc1 (stereo not drawn) [Compound C0128M]
MOR agonist activity ([35S]GTPgS binding to Gao) (0.1 μM compound as agonist): 197.8% | MOR agonist activity ([35S]GTPgS binding to Gao) (1 μM + BFNA): 63.9% | MOR agonist activity ([35S]GTPgS binding to Gao) (1 μM compound as agonist): 286.0%
